How the values were obtained:
Type in all cases: functional
Uromyces viciae-fabae = test: Fungicidal activity against Uromyces viciae-fabae infected compound pre-treated bean leaf pieces assessed as control of disease or pathogen at 100 ppm measured after 5 to 14 days by leaf-piece assay
Botrytis cinerea [1] = test: Fungicidal activity against Botryotinia fuckeliana grown on compound supplemented artificial media assessed as control of disease or pathogen at 20 ppm measured after 5 to 14 days by artificial media assay
Pythium dissimile [2] = test: Fungicidal activity against Pythium dissimile grown on compound supplemented artificial media assessed as control of disease or pathogen at 2 ppm measured after 5 to 14 days by artificial media assay
[3] = Fungicidal activity against Zymoseptoria tritici infected on compound pre-treated wheat leaf pieces assessed as control of disease or pathogen at 100 ppm measured after 5 to 14 days by leaf-piece assay
Alternaria solani [4] = test: Fungicidal activity against Alternaria solani grown on compound supplemented artificial media assessed as control of disease or pathogen at 2 ppm measured after 5 to 14 days by artificial media assay
Alternaria solani [5] = test: Fungicidal activity against Alternaria solani grown on compound supplemented artificial media assessed as control of disease or pathogen at 20 ppm measured after 5 to 14 days by artificial media assay
Pythium dissimile [6] = test: Fungicidal activity against Pythium dissimile grown on compound supplemented artificial media assessed as control of disease or pathogen at 20 ppm measured after 5 to 14 days by artificial media assay
Botrytis cinerea [7] = test: Fungicidal activity against Botryotinia fuckeliana grown on compound supplemented artificial media assessed as control of disease or pathogen at 2 ppm measured after 5 to 14 days by artificial media assay

SMILES	Activity (Uromyces viciae-fabae) [%]	Activity (Botrytis cinerea [1]) [%]	Activity (Pythium dissimile [2]) [%]	Activity [3] [%]	Activity (Alternaria solani [4]) [%]	Activity (Alternaria solani [5]) [%]	Activity (Pythium dissimile [6]) [%]	Activity (Botrytis cinerea [7]) [%]
CCn1cc(-c2ocnc2Cl)c2ccccc21	99	0	0	0	0	0	55	0
CC(Cl)C(=O)n1cc(-c2ocnc2Cl)c2ccccc21 (stereo not given)	55	0	0	0	0	55	0	0
COC(=O)n1cc(-c2ocnc2Cl)c2ccccc21	0		0	0	0	0	0	
C=CCn1cc(-c2ocnc2Cl)c2ccccc21	99	0	0	0	0	0	0	0
Clc1ncoc1-c1cn(CC2CO2)c2ccccc12 (stereo not given)	77	0	0	0	0	0	0	0
COC(=O)n1cc(-c2ocnc2Br)c2ccccc21	0		0	0	0	0	0	
CCn1cc(-c2ocnc2Br)c2ccccc21	99	0	49	0	0	55	55	0
c1ccc2c(-c3cnco3)c[nH]c2c1	0	0	0	0	0	77	99	0
Cn1cc(-c2ocnc2Cl)c2ccccc21	77	0	0	0	0	0	0	0
O=C(C(Cl)Cl)n1cc(-c2ocnc2Br)c2ccccc21	27	99	0	0	0	99	77	0
CCC(=O)n1cc(-c2ocnc2Br)c2ccccc21	0	0	0	0	0	0	0	0
Fc1ccc(Cn2cc(-c3ocnc3Cl)c3ccccc32)c(F)c1	27	0	0	0	0	0	0	0
CCC(=O)n1cc(-c2ocnc2Cl)c2ccccc21	0	0	0	0	0	0	0	0
Clc1ncoc1-c1c[nH]c2ccccc12 [Streptochlorin]	55	99	0	36	99	99	99	0
C=CCn1cc(-c2ocnc2Br)c2ccccc21	49	27	0	18	0	0	0	0
Clc1ncoc1-c1cn(CC2CC2)c2ccccc12	55	0	0	33	0	0	99	0
ClC(Cl)=CCn1cc(-c2ocnc2Br)c2ccccc21	0	0	0	0	0	0	0	0

SMILES	Activity (Uromyces viciae-fabae) [%]	Activity (Botrytis cinerea [1]) [%]	Activity (Pythium dissimile [2]) [%]	Activity [3] [%]	Activity (Alternaria solani [4]) [%]	Activity (Alternaria solani [5]) [%]	Activity (Pythium dissimile [6]) [%]	Activity (Botrytis cinerea [7]) [%]
COCC(=O)n1cc(-c2ocnc2Cl)c2ccccc21	55	77	0	0	0	99	55	0
CCS(=O)(=O)n1cc(-c2ocnc2Cl)c2ccccc21	55	0	0	0	0	0	27	0
CC(=O)n1cc(-c2ocnc2Cl)c2ccccc21	0	0	0	0	0	0	0	0
O=C(CCl)n1cc(-c2ocnc2Br)c2ccccc21	49	99	0	18	27	99	99	0
CCS(=O)(=O)n1cc(-c2ocnc2Br)c2ccccc21	0	0	0	0	0	0	0	0
CC(Cl)C(=O)n1cc(-c2ocnc2Br)c2ccccc21 (stereo not given)	27	0	0	0	0	55	0	0
O=C(C(Cl)Cl)n1cc(-c2ocnc2Cl)c2ccccc21	0	99	0	0	0	99	99	0
CC(=O)n1cc(-c2ocnc2Br)c2ccccc21	0	0	0	0	0	0	0	0
O=C(CCl)n1cc(-c2ocnc2Cl)c2ccccc21	49	99	0	0	0	55	99	0
CCOC(=O)C(=O)n1cc(-c2ocnc2Cl)c2ccccc21	0	99	0	33	0	99	77	0
Brc1ncoc1-c1cn(CC2CC2)c2ccccc12	0	0	0	0	0	0	55	0
O=C(n1cc(-c2ocnc2Cl)c2ccccc21)C(Cl)(Cl)Cl	55	99	0	0	0	99	99	0
CCOC(=O)Cn1cc(-c2ocnc2Cl)c2ccccc21	0	0	0	0	0	0	0	0
Cn1cc(-c2ocnc2Br)c2ccccc21	55	0	0	0	0	0	0	0
COCC(=O)n1cc(-c2ocnc2Br)c2ccccc21	77	99	0	0	0	99	77	0
Brc1ncoc1-c1c[nH]c2ccccc12	77	99	0	0	0	99	99	0

— ChEMBL document CHEMBL3046856, “Synthesis and fungicidal activity of novel pimprinine analogues” (2012)
